Test results: PMC12371494, “Discovery of YTHDF2 Ligands by Fragment-Based Design” (ACS Bio & Med Chem Au, 2025)
pIC50, pKd: −log10 of the molar value. Where two headings read alike, the source gives them in different places.

Columns and labels:
GST-YTHDF1 = target: T1, GST-YTHDF1 (Homo sapiens, UniProt Q9BYJ9); experiment: HTRF-based binding assay, DF1; conditions: for Single-dose residual signal at 100 µM, DF1: 100 µM compound, normalized; for pIC50: dose-response
T1 construct: made in house
T1 sequence (Q9BYJ9 1-559): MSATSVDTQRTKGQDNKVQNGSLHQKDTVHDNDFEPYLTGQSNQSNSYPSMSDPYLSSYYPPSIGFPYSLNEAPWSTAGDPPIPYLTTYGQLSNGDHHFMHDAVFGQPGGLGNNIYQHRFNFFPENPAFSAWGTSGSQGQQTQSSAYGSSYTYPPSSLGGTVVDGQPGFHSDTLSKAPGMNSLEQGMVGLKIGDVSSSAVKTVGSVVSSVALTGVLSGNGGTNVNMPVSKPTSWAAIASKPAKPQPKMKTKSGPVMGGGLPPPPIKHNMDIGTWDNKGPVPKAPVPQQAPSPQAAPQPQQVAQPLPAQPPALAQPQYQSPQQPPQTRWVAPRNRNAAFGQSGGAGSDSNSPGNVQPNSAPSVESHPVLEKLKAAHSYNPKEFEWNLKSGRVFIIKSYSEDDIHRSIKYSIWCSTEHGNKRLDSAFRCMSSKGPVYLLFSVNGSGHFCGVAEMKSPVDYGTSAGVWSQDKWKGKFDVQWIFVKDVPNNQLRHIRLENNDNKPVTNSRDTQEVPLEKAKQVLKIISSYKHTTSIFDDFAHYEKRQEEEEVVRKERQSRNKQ
Description: The HTRF-based assay was employed to evaluate the selectivity of the series against other DF proteins.
A dose–response experiment on DF1 and DF3 was conducted for compounds 17, 18, 23, and 27 (Figure S5). Compounds 17, 18, and 27 are active on three DF proteins. […] In contrast, compound 23 is selective for DF2, with residual signals (at the highest employed concentration of 62.5 μM) of 51 and 87% for DF1 and DF3, respectively.
GST-YTHDC1, GST-YTHDF1, GST-YTHDF2, and GST-YTHDF3 were purified as previously reported. The HTRF assay was assembled as detailed in ref with the only difference being that the starting concentration of the dose–response experiments used for the IC50 determination was variated dependently from the tested compound. The same protocol was applied to the four proteins. The competitive inhibition data of GST-YTHDF1 (single dose experiment at 100 μM compound concentration and dose–response curves), GST-YTHDF3 (single dose experiment at 100 μM compound concentration and dose–response curves), and GST-YTHDF2 (single dose experiment at 100 μM compound concentration) were normalized as described in ref to mitigate interference. The signal was measured as described in ref .

YTHDF2 = target: T2, YTHDF2 (Homo sapiens, UniProt Q9Y5A9); experiment: DNA-fluorescence polarization (FP) competition assay, DF2; format: binding
T2 sequence (Q9Y5A9 1-579): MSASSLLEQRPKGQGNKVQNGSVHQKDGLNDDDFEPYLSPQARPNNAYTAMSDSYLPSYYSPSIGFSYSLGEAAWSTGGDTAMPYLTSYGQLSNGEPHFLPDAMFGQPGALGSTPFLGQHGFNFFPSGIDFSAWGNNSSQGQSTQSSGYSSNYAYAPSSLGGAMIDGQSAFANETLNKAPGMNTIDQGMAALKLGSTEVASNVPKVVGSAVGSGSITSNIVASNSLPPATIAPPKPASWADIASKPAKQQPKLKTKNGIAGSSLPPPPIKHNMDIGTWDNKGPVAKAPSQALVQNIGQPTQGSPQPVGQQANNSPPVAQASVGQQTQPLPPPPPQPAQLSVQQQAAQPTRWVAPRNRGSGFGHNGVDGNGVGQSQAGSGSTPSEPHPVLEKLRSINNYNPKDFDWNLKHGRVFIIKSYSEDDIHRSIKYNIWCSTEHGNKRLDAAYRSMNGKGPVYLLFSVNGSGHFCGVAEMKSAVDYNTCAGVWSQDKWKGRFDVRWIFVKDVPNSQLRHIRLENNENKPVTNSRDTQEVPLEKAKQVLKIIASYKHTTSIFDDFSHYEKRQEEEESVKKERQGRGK
Description: An FP competition assay was used to further validate the binding of the compounds to DF2. The main difference with respect to a previously published FP assay is the use of an oligo-DNA as competitor ligand (see Materials and Methods section). […] These differences might originate from the varying conditions in the two assays, such as the competitor mRNA (5′-biotin-[…](m6A)-CUAAGCU-3′) in HTRF and DNA (5′-FAM-[…](m6A)-CTAAGCT-3′) in FP, the salt concentration (150 mM NaCl and 100 mM KF in HTRF, and 150 mM NaCl in FP), and the pH (7.5 in HTRF and 7.4 in FP). The FP-based assay was also employed to assess the selectivity against DC1 and DC2 (see Selectivity section).
For fluorescence polarization (FP) experiments, a 5′-fluorescein-labeled m^6A-DNA probe (5′-FAM-[…](m6A)-CTAAGCT-3′) was synthesized by Microsynth AG.
The final concentration of the fluorescein-labeled DNA was kept constant at 3 nM. For YTHDC2 measurements, the protein concentration was set to 25 nM, while for YTHDF2 measurements, it was set to 10 nM, and for YTHDC1, it was set at 15 nM. The compound concentration was serially diluted to obtain the dose–response curve. The competition experiments were conducted in a final volume of 20 μL in a buffer containing 20 mM Tris–HCl (pH 7.4), 150 mM NaCl, and 0.01% bovine serum albumin (BSA), using a 384-well black flat-bottomed microplate (Corning 3575).
After incubating the mixture for 1 h, the anisotropy values were measured using a Tecan SPARK plate reader with 485/20 nm excitation and 535/25 nm emission polarization filters, suitable for fluorescein, at 25 °C. To obtain the equilibrium dissociation constant (K d), the IC50 values were first derived by fitting a dose–response curve to the data using nonlinear regression analysis in GraphPad Prism. These IC50 values were then converted to K d by using the Cheng–Prusoff equation: Kd=IC50/1+[L]/Kdprobe
IC50 is the observed value from FP assay, [L] is the probe concentration used, and K d ^probe is the binding affinity of probe for the target.

[1] = Cheng-Prusoff from FP IC50, probe Kd 5 nM, two biological replicates

Row | Structure (SMILES) | Single-dose residual signal at 100 µM, DF1 (GST-YTHDF1; HTRF) [%] | pKd (YTHDF2) | pIC50 (GST-YTHDF1) | pIC50 (YTHDF2; FP IC50 before conversion (Kd = IC50/1.6)) | Residual signal DF1 at highest concentration (GST-YTHDF1; HTRF, 62.5 μM compound) [%] | pKd (YTHDF2; [1])
1 | O=c1[nH]c(=S)[nH]c2sccc12 [Compound 14] | 15 | 5.42 | – | – | – | –
2 | COC(=O)c1ccc(-c2csc3[nH]c(=S)[nH]c(=O)c23)cc1 [Compound 17] | 7 | 5.92 | 5.00 | – | – | –
3 | O=C(O)c1ccc(-c2csc3[nH]c(=S)[nH]c(=O)c23)cc1 [Compound 18] | 3 | 6.21 | 4.96 | – | – | –
4 | O=c1[nH]c(=S)[nH]c2scc(-c3ccc(O)cc3)c12 [Compound 19] | 8 | 5.89 | – | 5.70 | – | –
5 | CC(=O)c1sc2[nH]c(=S)[nH]c(=O)c2c1C [Compound 20] | 8 | 5.51 | – | – | – | –
6 | CCOC(=O)c1sc2[nH]c(=S)[nH]c(=O)c2c1C [Compound 21] | 12 | 5.36 | – | – | – | –
7 | Cc1c(C(=O)NCc2ccccc2)sc2[nH]c(=S)[nH]c(=O)c12 [Compound 22] | 17 | 5.00 | – | – | – | –
8 | Cc1c(C(=O)NCc2cccnc2)sc2[nH]c(=S)[nH]c(=O)c12 [Compound 23] | 20 | 5.89 | < 4.22 | – | 51 | –
9 | Cc1c(C(=O)NCc2cccc(C(=O)O)c2)sc2[nH]c(=S)[nH]c(=O)c12 [Compound 24] | 5 | 5.60 | – | – | – | –
10 | Cc1c(C(=O)NCCCC(=O)O)sc2[nH]c(=S)[nH]c(=O)c12 [Compound 25] | 6 | 5.89 | – | – | – | –
11 | Cc1c(-c2ccc([N+](=O)[O-])cc2)sc2[nH]c(=S)[nH]c(=O)c12 [Compound 26] | 12 | 4.77 | – | – | – | –
12 | Cc1c(-c2ccc(N)cc2)sc2[nH]c(=S)[nH]c(=O)c12 [Compound 27] | 6 | 5.72 | 4.89 | – | – | –
13 | NC(=O)c1csc2[nH]c(=S)[nH]c(=O)c12 [Compound 31] | 27 | 5.72 | – | – | – | –

Other lines, results leading:

Row | Single-dose residual signal at 100 µM, DF1 (GST-YTHDF1; HTRF) [%] | pKd (YTHDF2) | pIC50 (GST-YTHDF1) | pIC50 (YTHDF2; FP IC50 before conversion (Kd = IC50/1.6)) | Residual signal DF1 at highest concentration (GST-YTHDF1; HTRF, 62.5 μM compound) [%] | pKd (YTHDF2; [1]) | Structure (SMILES)
14 | 9 | – | – | – | – | 5.06 | O=c1[nH]c(=S)[nH]c2scc(-c3ccc(Br)cc3)c12 [Compound S75]
15 | 12 | – | – | – | – | 4.96 | COc1ccc(-c2csc3[nH]c(=S)[nH]c(=O)c23)cc1 [Compound S76]
16 | 32 | – | – | – | – | 5.25 | O=c1[nH]c(=S)[nH]c2scc(C3CCCCC3)c12 [Compound S77]
17 | 34 | – | – | – | – | 5.21 | O=c1[nH]c(=S)[nH]c2sc(Cc3ccccc3)cc12 [Compound S85]
18 | 16 | – | – | – | – | 5.12 | CCOC(=O)c1csc2[nH]c(=S)[nH]c(=O)c12 [Compound S89]
19 | 36 | – | – | – | – | 5.00 | O=C(O)c1csc2[nH]c(=S)[nH]c(=O)c12 [Compound S90]
